Data set [1] in a line: acute toxicity (LD50) in mice. The conditions noted are these: mouse, in vivo, iv; interaneveously administered to mice. From the text: (§1) Thus, nanaomycin E is of interest as an antibacterial and therapeutic agent for humans and animals.
Data set [2] concerns Gram-positive bacteria, Trichophyton and Mycoplasma. The conditions noted are these: cited from earlier work.
Data set [3] deals with Staphylococcus aureus FDA 209P. Nature of the data set: antibacterial spectrum, MIC by agar dilution. The data set is classed as cell-based. The conditions noted are these: FDA209P, nutrient agar pH 7.0, 37° C., 20 hours.
For data set [4], the system named is Staphylococcus aureus FS 1277 (penicillin-resistant). Nature of the data set: antibacterial spectrum, MIC by agar dilution. The data set is classed as cell-based. The conditions noted are these: nutrient agar pH 7.0, 37° C., 20 hours. (In general: In agar dilution the substance is mixed into plates at graded concentrations.)
The subject of data set [5] is Staphylococcus aureus KB 64 (erythromycin- and tetracycline-resistant). Description: antibacterial spectrum, MIC by agar dilution. Type of data set: cell-based. The conditions noted are these: nutrient agar pH 7.0, 37° C., 20 hours.
Data set [6] concerns Bacillus subtilis PCI 219. Description: antibacterial spectrum, MIC by agar dilution. The data set is classed as cell-based. To be noted: PCI219, nutrient agar pH 7.0, 37° C., 20 hours.
The next data set relates to Bacillus cereus T. Nature of the data set: antibacterial spectrum, MIC by agar dilution. The data set is classed as cell-based. To be noted: nutrient agar pH 7.0, 37° C., 20 hours.
In a further data set the test system is Sarcina lutea PCI 1001. Description: antibacterial spectrum, MIC by agar dilution. The data set is classed as cell-based. The conditions noted are these: Micrococcus luteus, PCI1001, nutrient agar pH 7.0, 37° C., 20 hours.
The subject of data set [7] is Mycobacterium smegmatis ATCC 607. Description: antibacterial spectrum, MIC by agar dilution. The data set is classed as cell-based. The conditions noted are these: Mycolicibacterium smegmatis, ATCC607, nutrient agar pH 7.0, 37° C., 20 hours.
Data set [8] concerns Proteus vulgaris IFO 3167. Nature of the data set: antibacterial spectrum, MIC by agar dilution. The data set is classed as cell-based. The conditions noted are these: IFO3167, nutrient agar pH 7.0, 37° C., 20 hours.
The next data set has as its system Nocardia asteroides. Description: antibacterial spectrum, MIC by agar dilution. Type of data set: cell-based. To be noted: nutrient agar pH 7.0, 37° C., 20 hours.
For another data set, the system named is Escherichia coli NIHJ. Description: antibacterial spectrum, MIC by agar dilution. Type of data set: cell-based. The conditions noted are these: nutrient agar pH 7.0, 37° C., 20 hours.
The test system of the next data set is Salmonella typhimurium. Description: antibacterial spectrum, MIC by agar dilution. The data set is classed as cell-based. To be noted: Salmonella enterica, nutrient agar pH 7.0, 37° C., 20 hours.
The next data set concerns Shigella sonnei E 33. Nature of the data set: antibacterial spectrum, MIC by agar dilution. Type of data set: cell-based. To be noted: E33, nutrient agar pH 7.0, 37° C., 20 hours. Here is the method:
(§2) The antibacterial and antifungal spectrum of nanaomycin E is shown in Table 1, in which the minimum inhibitory concentration (MIC) is determined by the agar dilution method. In the case of bacteria, the determination was made after culturing at 37° C. for 20 hours by using a nutrient agar having a pH of 7.0 and, in the cases of fungi, the determination was made after culturing at 27° C. for 70 hours by using a potato-agar having a pH of 6.4.

Data set [9] deals with Pseudomonas aeruginosa P 3. Description: antibacterial spectrum, MIC by agar dilution. To be noted: P3, nutrient agar pH 7.0, 37° C., 20 hours. The data set is classed as cell-based.
A further data set relates to Candida albicans. Description: antifungal spectrum, MIC by agar dilution. Type of data set: cell-based. The conditions noted are these: potato-agar pH 6.4, 27° C., 70 hours.
The subject of another data set is Saccharomyces sake. Description: antifungal spectrum, MIC by agar dilution. To be noted: potato-agar pH 6.4, 27° C., 70 hours. The data set is classed as cell-based.
For another data set, the system named is Piricularia oryzae. Description: microbe, parasite or virus in culture. The data set is classed as cell-based. To be noted: pH 6.4; 27° C., 70 hours.
The test system of data set [10] is Aspergillus niger ATCC 6275. Description: antifungal spectrum, MIC by agar dilution. The data set is classed as cell-based. To be noted: ATCC6275, potato-agar pH 6.4, 27° C., 70 hours.
The test system of the next data set is Microsporum gypseum. Description: antifungal spectrum, MIC by agar dilution. To be noted: Nannizzia gypsea, potato-agar pH 6.4, 27° C., 70 hours. Type of data set: cell-based.
The subject of data set [11] is Trichophyton interdigitale. Description: antifungal spectrum, MIC by agar dilution. The conditions noted are these: potato-agar pH 6.4, 27° C., 70 hours. Type of data set: cell-based.
The subject of a further data set is Trichophyton rubrum. Description: antifungal spectrum, MIC by agar dilution. Type of data set: cell-based. To be noted: potato-agar pH 6.4, 27° C., 70 hours.
Data set [12] deals with Trichophyton mentagrophytes. Description: antifungal spectrum, MIC by agar dilution. The data set is classed as cell-based. To be noted: potato-agar pH 6.4, 27° C., 70 hours.
The next data set has as its system Trichophyton schoenleini. Nature of the data set: antifungal spectrum, MIC by agar dilution. Type of data set: cell-based. To be noted: potato-agar pH 6.4, 27° C., 70 hours.
Data set [13] relates to Gram-positive bacteria and fungi. Description: activity against Gram-positive bacteria and fungi compared with nanaomycin A and D. The data set is classed as cell-based. Here is the method: as §2, §1
Another data set is described as follows: solubility. The data set is classed as physicochemical.

Converted amounts (≈) assume the structure as drawn.

On to `CC1OC(CC(=O)O)CC2=C1C(=O)c1c(O)cccc1C2=O` (stereo not drawn) [nanaomycin A], for which the median lethal dose (LD50) (as a rule, the dose at which mortality reaches 50%) in data set [1] turned out to be 46 mg/kg. The antibiotic activity result in data set [2] (against Gram-positive bacteria, Trichophyton and Mycoplasma, known compound) was “having antibiotic activity against Gram-positive bacteria, Trichophyton and Mycoplasma”. Besides, the “activity against Gram-positive bacteria, Trichophyton and Mycoplasma” value in data set [2] (among nanaomycin-type compounds) was “exhibits the strongest activity”.
In data set [1], `CC1OC2CC(=O)OC2C2=C1C(=O)c1c(O)cccc1C2=O` (stereo not drawn) [nanaomycin D] yielded a median lethal dose (LD50) of 1.5 mg/kg.
As for `CC1OC(CC(=O)O)CC23OC12C(=O)c1c(O)cccc1C3=O` (stereo not drawn) [nanaomycin E], the MIC in data set [3] came to 25 µg/mL (≈ 78.5 µM); in data set [4], 25 µg/mL (≈ 78.5 µM); in data set [5], 25 µg/mL (≈ 78.5 µM); in data set [6], 12.5 µg/mL (≈ 39.3 µM); with Bacillus cereus T it was 12.5 µg/mL (≈ 39.3 µM); in the data set on Sarcina lutea PCI 1001, 25 µg/mL (≈ 78.5 µM). In addition, the MIC is over 100 µg/mL in data set [7]; 25 µg/mL (≈ 78.5 µM) in data set [8]; over 100 µg/mL against Nocardia asteroides; 50 µg/mL (≈ 157 µM) in the data set on Escherichia coli NIHJ; over 100 µg/mL in the data set with Salmonella typhimurium; over 100 µg/mL with Shigella sonnei E 33. In addition, the MIC in [9] was over 100 µg/mL; against Candida albicans, over 100 µg/mL; against Saccharomyces sake it was over 100 µg/mL; in the data set on Piricularia oryzae, 100 µg/mL (≈ 314 µM); in data set [10], over 100 µg/mL; with Microsporum gypseum, 100 µg/mL (≈ 314 µM). The MIC (in data set [11]; against Trichophyton rubrum; in data set [12]; in the data set on Trichophyton schoenleini) was 50 µg/mL (≈ 157 µM) in each case. For the same compound, the LD50 in [1] is 60 mg/kg. In [13], the “activity against Gram-positive bacteria and fungi relative to nanaomycin A and D” value was “approximately equal to or somewhat weaker than the activities of nanaomycin A and D”. The Solubility result in the data set “solubility” (in methanol, ethanol, ethyl acetate, butyl acetate etc.) was “Easily soluble”; in the data set “solubility” (in n-hexane, petroleum ether etc.) it was “Insoluble”.

Source of the values: US4353986A, “Process for producing antibiotic nanaomycin E” (priority 1978, dated 1982).
